Data: US20100292231A1, “Indazole Compounds for Treating Inflammatory Disorders, Demyelinating Disorders and Cancers” (priority 2007, published 2010)
Like-named read-outs stand apart in the source and are kept apart here.

Experiments:
[1] = system: Mda231 cells; assay: BME cell invasion assay (Boyden chamber principle); assay type: cell-based; settings: 24 hours
Description: Representative compounds were tested for their ability to inhibit invasion of Mda231 cells. Invasive cells are a mark of metastatic tumors. The in vitro invasion assay is based on the Boyden chamber assay principle.
The 96-well BME cell invasion assay kit was used according to the manufacturers' protocol (Culturex™ catalog number: 3455-096-K). Prior to assay cells were serum starved for 18 hrs and the membrane of the top invasion chamber was coated with 50 μl of 0.83× BME solution and incubated overnight at 37° C./5% CO2. The next day cells were harvested and 40.000 cells/well in 50 μl medium without serum were plated to top chamber. 150 μl of medium with serum was added to bottom chamber. Compounds were added and cells were incubated for 24 hrs at 37° C./5% CO2. The remaining cells were assayed for standard curve.
After 24 hours, the bottom chamber was aspirated and washed twice with 200 μl wash buffer. The bottom chamber was transferred to a black assay plate. Cells migrated through the membrane are stained with Calcein-AM and measured with fluorescence spectrophotometry; 150 μl Calcein-AM/Cell dissociation solution was added and incubated at 37° C./5% CO2. After 1 hour, the plate was read at 485 nm excitation, 520 nm emission. Using standard curve, the fluorescence signal measured was converted to cell number and percent invasion was determined.

[2] = target: T1, ADRBK2 (BARK2, GRK3) (Homo sapiens, UniProt P35626); assay: SelectScreen kinase specificity survey; assay type: biochemical
T1 construct: purchased Invitrogen (SelectScreen platform)
T1 sequence (P35626 whole entry): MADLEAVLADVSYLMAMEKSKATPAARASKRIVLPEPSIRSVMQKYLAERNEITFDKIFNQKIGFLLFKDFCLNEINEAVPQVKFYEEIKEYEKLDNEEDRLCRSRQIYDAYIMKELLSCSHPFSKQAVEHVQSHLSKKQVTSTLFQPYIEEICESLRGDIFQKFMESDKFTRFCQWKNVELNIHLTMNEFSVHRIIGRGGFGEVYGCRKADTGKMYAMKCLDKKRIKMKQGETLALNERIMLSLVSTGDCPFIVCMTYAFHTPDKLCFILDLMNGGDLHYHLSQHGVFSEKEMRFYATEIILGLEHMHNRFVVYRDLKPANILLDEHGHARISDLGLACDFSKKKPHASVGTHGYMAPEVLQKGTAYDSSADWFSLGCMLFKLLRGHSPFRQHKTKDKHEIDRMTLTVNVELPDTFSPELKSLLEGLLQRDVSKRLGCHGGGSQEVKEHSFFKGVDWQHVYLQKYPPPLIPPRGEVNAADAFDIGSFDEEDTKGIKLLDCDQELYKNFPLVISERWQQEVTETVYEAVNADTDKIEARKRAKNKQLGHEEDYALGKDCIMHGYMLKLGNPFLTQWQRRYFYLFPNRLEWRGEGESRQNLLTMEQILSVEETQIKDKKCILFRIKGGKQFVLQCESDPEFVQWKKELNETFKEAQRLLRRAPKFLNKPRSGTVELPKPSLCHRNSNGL
Summary of the method: (§1)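 Curves built from five inhibitor increments were fitted by four-parameter Hill regression to estimate EC50. Each kinase reaction used a dedicated substrate with optical detection and 100 micromolar ATP, referenced to uninhibited control phosphorylation.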

[3] = target: T2, AKT3 (PKB gamma) (Homo sapiens, UniProt Q9Y243); assay: SelectScreen kinase specificity survey; assay type: biochemical; settings: estimated, abridged dose response curve, read-out: Kinase inhibitory activity EC50
T2 construct: purchased Invitrogen (SelectScreen platform)
Summary of the method: as §1

[4] = target: T3, FGFR1 (Homo sapiens, UniProt P11362); assay: SelectScreen kinase specificity survey; assay type: biochemical; settings: estimated, abridged dose response curve, read-out: Kinase inhibitory activity EC50
T3 construct: purchased Invitrogen (SelectScreen service)
T3 sequence (P11362 22-822): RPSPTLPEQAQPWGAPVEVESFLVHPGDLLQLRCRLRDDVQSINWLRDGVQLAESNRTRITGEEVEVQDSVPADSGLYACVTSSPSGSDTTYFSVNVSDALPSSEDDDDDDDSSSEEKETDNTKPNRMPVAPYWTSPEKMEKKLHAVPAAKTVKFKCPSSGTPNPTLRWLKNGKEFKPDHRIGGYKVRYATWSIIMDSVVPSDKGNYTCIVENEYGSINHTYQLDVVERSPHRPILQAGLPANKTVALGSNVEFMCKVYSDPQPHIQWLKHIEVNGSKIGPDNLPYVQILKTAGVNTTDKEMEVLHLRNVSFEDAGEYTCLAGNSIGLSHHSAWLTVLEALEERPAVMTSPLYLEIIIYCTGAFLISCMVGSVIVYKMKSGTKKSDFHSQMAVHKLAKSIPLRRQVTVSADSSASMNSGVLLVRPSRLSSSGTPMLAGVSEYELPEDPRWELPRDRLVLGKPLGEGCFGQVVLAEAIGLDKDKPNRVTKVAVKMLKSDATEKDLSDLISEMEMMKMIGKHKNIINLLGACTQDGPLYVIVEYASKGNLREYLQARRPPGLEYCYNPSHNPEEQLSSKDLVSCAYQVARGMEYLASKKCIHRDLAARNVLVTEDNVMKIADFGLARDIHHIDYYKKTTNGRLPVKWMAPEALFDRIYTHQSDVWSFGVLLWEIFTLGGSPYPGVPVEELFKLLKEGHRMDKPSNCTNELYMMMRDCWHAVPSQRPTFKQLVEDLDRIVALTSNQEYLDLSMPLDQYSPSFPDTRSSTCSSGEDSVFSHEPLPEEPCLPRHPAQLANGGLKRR
Summary of the method: as §1

[5] = target: T4, HIPK4 (Homo sapiens, UniProt Q8NE63); assay: SelectScreen kinase specificity survey; assay type: biochemical; settings: estimated, abridged dose response curve, read-out: Kinase inhibitory activity EC50
T4 construct: purchased Invitrogen (SelectScreen platform)
T4 sequence (Q8NE63 whole entry): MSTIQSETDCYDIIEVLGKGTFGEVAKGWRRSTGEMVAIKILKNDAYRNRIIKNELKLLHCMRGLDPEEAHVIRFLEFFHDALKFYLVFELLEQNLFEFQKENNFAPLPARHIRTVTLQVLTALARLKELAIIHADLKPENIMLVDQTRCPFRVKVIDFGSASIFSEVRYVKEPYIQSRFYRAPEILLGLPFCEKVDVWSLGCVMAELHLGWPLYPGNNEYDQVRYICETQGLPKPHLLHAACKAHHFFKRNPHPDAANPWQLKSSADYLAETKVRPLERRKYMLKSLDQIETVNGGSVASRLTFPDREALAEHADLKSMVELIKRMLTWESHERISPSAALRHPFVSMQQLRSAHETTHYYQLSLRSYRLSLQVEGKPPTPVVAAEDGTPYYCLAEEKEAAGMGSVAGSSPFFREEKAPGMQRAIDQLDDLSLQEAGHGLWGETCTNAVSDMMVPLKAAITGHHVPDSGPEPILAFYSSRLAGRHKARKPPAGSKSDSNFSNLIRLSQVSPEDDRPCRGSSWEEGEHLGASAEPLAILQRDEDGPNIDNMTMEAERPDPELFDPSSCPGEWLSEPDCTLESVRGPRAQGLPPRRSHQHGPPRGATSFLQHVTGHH
Summary of the method: as §1

[6] = target: T5, MATK (HYL, CTK) (Homo sapiens, UniProt P42679); assay: SelectScreen kinase specificity survey; assay type: biochemical; settings: estimated, abridged dose response curve, read-out: Kinase inhibitory activity EC50
T5 construct: purchased Invitrogen (SelectScreen service)
T5 sequence (P42679 whole entry): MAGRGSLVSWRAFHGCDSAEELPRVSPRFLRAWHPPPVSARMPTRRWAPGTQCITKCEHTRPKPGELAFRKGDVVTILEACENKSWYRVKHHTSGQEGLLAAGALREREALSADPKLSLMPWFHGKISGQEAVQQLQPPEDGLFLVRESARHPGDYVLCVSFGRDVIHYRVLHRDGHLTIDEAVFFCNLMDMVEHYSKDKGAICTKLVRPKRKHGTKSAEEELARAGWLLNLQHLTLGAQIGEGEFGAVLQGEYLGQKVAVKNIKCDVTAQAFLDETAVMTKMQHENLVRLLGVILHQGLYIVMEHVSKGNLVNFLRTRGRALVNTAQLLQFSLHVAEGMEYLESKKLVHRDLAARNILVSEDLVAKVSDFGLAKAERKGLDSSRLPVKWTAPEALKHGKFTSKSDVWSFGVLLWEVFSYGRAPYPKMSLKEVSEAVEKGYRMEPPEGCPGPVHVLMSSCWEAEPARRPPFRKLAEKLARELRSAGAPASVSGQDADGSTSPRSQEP
Summary of the method: as §1

[7] = target: T6, MINK1 (ZC3) (Homo sapiens, UniProt Q8N4C8); assay: SelectScreen kinase specificity survey; assay type: biochemical; settings: estimated, abridged dose response curve, read-out: Kinase inhibitory activity EC50
T6 construct: purchased Invitrogen (SelectScreen platform)
T6 sequence (Q8N4C8 whole entry): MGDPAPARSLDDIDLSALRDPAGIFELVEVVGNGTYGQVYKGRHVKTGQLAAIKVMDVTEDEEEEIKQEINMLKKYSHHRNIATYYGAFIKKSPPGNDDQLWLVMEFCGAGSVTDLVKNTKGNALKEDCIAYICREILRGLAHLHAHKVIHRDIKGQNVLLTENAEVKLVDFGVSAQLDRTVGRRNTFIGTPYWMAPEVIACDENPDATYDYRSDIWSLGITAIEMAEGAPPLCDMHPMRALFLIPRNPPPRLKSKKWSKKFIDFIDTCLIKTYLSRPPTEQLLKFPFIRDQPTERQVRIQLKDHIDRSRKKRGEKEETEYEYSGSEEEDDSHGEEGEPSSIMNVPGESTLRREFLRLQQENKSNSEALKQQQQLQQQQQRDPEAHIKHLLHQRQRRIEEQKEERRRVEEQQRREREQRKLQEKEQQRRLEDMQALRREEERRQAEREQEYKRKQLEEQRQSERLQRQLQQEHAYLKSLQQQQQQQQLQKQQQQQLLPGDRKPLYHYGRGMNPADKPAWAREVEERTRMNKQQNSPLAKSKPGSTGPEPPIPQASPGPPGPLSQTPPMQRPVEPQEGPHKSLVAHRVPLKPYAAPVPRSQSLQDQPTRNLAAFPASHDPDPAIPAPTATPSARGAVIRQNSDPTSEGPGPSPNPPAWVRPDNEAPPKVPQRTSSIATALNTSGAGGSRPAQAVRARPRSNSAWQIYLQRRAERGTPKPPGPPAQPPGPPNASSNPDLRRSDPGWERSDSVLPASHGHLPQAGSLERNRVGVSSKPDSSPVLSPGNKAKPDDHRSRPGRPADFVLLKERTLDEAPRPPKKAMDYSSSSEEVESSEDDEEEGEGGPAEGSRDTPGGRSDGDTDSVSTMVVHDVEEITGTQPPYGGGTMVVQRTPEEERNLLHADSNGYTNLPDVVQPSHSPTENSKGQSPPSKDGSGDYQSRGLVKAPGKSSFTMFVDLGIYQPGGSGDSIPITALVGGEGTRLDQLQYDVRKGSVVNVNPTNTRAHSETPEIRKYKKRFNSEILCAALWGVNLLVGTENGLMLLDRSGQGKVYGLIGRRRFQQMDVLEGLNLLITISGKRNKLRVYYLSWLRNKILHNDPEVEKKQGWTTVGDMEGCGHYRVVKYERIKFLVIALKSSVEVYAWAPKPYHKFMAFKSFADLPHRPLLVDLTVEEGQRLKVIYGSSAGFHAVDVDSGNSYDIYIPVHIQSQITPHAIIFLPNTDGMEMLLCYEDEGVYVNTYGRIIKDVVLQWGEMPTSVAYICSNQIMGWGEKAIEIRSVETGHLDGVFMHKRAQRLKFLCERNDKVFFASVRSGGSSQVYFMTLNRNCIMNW
Summary of the method: as §1

[8] = target: T7, NEK6 (Homo sapiens, UniProt Q9HC98); assay: SelectScreen kinase specificity survey; assay type: biochemical; settings: estimated, abridged dose response curve, read-out: Kinase inhibitory activity EC50
T7 construct: purchased Invitrogen, Inc. (SelectScreen service)
T7 sequence (Q9HC98 whole entry): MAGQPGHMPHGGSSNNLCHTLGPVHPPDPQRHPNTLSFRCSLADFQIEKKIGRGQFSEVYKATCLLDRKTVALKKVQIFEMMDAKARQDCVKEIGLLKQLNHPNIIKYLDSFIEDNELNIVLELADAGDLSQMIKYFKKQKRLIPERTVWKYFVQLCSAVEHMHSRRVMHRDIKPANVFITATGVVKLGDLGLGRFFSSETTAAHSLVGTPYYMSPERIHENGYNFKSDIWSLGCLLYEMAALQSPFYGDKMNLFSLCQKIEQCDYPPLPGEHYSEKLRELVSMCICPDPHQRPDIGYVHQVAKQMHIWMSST
Summary of the method: as §1

[9] = target: T8, NTRK1 (TRKA) (Homo sapiens, UniProt P04629); assay: SelectScreen kinase specificity survey; assay type: biochemical
T8 construct: purchased Invitrogen (SelectScreen)
Summary of the method: as §1

[10] = target: T9, SRC N1 (Homo sapiens, UniProt P12931); assay: SelectScreen kinase specificity survey; assay type: biochemical; settings: estimated, abridged dose response curve, read-out: Kinase inhibitory activity EC50
T9 construct: purchased Invitrogen (SelectScreen)
T9 sequence (P12931 1-542 isoform P12931-2): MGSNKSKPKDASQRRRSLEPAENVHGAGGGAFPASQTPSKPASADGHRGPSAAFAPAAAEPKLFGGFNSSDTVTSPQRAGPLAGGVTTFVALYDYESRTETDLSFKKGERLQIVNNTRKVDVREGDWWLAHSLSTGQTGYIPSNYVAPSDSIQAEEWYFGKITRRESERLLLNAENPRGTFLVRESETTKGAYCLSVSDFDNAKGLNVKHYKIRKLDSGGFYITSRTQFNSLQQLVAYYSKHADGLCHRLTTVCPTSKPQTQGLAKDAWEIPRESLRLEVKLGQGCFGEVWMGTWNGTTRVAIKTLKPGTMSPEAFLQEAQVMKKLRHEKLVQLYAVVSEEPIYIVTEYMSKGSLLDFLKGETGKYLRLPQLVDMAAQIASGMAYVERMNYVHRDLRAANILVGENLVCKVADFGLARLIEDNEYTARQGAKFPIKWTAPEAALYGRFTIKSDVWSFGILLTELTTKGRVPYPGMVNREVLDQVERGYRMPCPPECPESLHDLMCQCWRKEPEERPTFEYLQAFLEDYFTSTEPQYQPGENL
Summary of the method: as §1

EC50 ([2]; ADRBK2 (BARK2, GRK3), estimated, abridged dose response curve, read-out: Kinase inhibitory activity EC50) [µM] | EC50 ([9]; NTRK1 (TRKA), estimated, abridged dose response curve, read-out: Kinase inhibitory activity EC50) [µM] | SMILES | inhibition of cell invasion [1] | EC50 [3] [µM] | EC50 [4] [µM] | EC50 [5] [µM] | EC50 [6] [µM] | EC50 [7] [µM] | EC50 [8] [µM] | EC50 [10] [µM] | EC50 [2] [µM] | EC50 [9] [µM]
– | – | CN1CCN(CCCNc2ccc3ncn4c5ccc6[nH]ncc6c5c(=O)c2c34)CC1 [(XVII)] | slightly more effective than Symadex | – | – | – | – | – | – | – | – | –
> 5 | 0.438 | CN(C)CCCNc1ccc2ncn3c4ccc5[nH]ncc5c4c(=O)c1c23 [Compound (IV)] | – | > 5 | 3.57 | 1.31 | > 5 | 1.36 | > 5 | 0.511 | – | –
– | – | CCN(CC)CCCNc1ccc2ncn3c4ccc5[nH]ncc5c4c(=O)c1c23 [Compound (XV)] | slightly more effective than Symadex | – | – | – | – | – | – | – | – | –
– | – | CCN(CC)CCNc1ccc2ncn3c4ccc(O)cc4c(=O)c1c23 [Symadex, 5-(2-(diethylamino)ethylamino)-8-hydroxy-6H-imidazo[4,5,1-de]acridin-6-one, reference compound] | – | > 5 | 2.39 | 1.82 | > 5 | 1.09 | > 5 | 3.15 | > 5 | 1.43
